Experimental data reported in patent US20250154149A1, “PHARMACEUTICAL COMPOSITION AND METHOD FOR PREPARING ACTIVE INGREDIENT COMPOUND THEREOF” (Betta Pharmaceuticals Co., Ltd., priority 2022, published 2025).
pEC50, pIC50: −log10 of the molar value.

Assays:
[1] = tested on: NCI-H226 (NF2 expression-deficient) human lung squamous cell carcinoma xenograft; assay: In vivo efficacy in subcutaneous NCI-H226 xenograft model; conditions: QD, oral, day 45, NCI-H226 xenograft in BALB/c nude mice
Description: In vivo pharmacodynamics and efficacy studies of the compound represented by Formula I were performed in a subcutaneous NCI-H226 (NF2 expression-deficient) human lung squamous cell carcinoma xenograft model in BALB/c nude mice.
BALB/c nude female mice (6 weeks to 7 weeks) were inoculated subcutaneously with 1×10^7 NCI-H226 tumor cells on the right side of each. The inoculated cells were resuspended in a mixture solution of 0.1 mL of PBS and matrix gel Matrigel (PBS: Matrigel=1:1). Administration treatment was started in groups when the average tumor size reached about 100 mm^3 to 200 mm^3. From the date of grouping, the mice were orally administered the crystal form A of the compound represented by Formula I (solvent: 10% DMSO+10% Solutol (KollipHor HS15)+80% physiological saline) once a day for a total of 45 days (QD×45 days). Animals were regularly monitored for changes in body weight as an indicator of compound safety. Tumors were measured twice weekly using a caliper, and the volume was expressed in mm^3 using the formula “V=(L×W^2)/2”, where V is the tumor volume, L is the length of the tumor (the longest tumor dimension) and W is the width of the tumor (the longest tumor dimension perpendicular to L). Compound inhibitory activity was assessed by tumor growth inhibition TGI (%). […]

[2] = Physicochemical stability test of the crystal form A; conditions: influencing factors (40° C., 60° C., 92.5% RH, 75% RH, 4500Lx), accelerated test, long-term test
Description: Referring to the requirements of “9001 Guidelines for Stability Test of APIs and Pharmaceutical Preparations” in the Chinese Pharmacopoeia, the stability test was conducted on the crystal form A of the compound represented by Formula I, and the specific test conditions are shown in Table 10.

[3] = Pressure stability of the crystal form A; format: physicochemical; conditions: pressure conditions of 150 kg and 230 kg
[4] = Hygroscopicity test (DVS); format: physicochemical
[5] = tested on: YAP/TAZ-TEAD transcription complex; assay: CTGF detection (ELISA method) in NCI-H2052 cells; format: cell-based, human; conditions: NCI-H2052 cells (NF2 mutation), 24 hours incubation, CTGF in culture supernatant by ELISA; read-out: EC50 value (CTGF concentration response curve)
Description: The detection of CTGF expression level may assess the activity of the YAP/TAZ-TEAD transcription complex. CTGF expression level was quantitatively detected using a human SimpleStep ELISA® kit (Abcam, ab261851).
NCI-H2052 cells (purchased from ATCC, NF2 mutation) were cultured in RPMI 1640 complete medium (containing 10% FBS, 1% penicillin-streptomycin solution and I mM sodium pyruvate). The day before compound treatment, cultured cells were washed with PBS, digested with trypsin, and then collected by centrifugation. The supernatant was removed, and the cells were resuspended in fresh complete medium. Cells were counted and inoculated in 96-well plates at a density of 6500 cells/well. […]
The Human CTGF ELISA Kit uses an affinity labeled capture antibody and a reporter gene coupled detection antibody to immunocapture the sample analytes in the solution. […] 50 μL of standard or cell supernatant sample to be detected were added to the wells of the detection plate. […] Finally, the OD value at 450 nm of each well was read on a multifunctional microplate reader. The concentrations of the target CTGF protein in the samples were determined by standard curve.
The inhibitory activity of the compound of the present application on the transcription regulatory function of TEAD-YAP/TAZ was assessed by the CTGF concentration response curve of the compound. […]

[6] = Pharmacokinetics in plasma of mice after oral administration; format: in vivo; conditions: female, BALB/c, mouse, oral (gavage, clear solution), single dose 5 mg/kg
Description: Adult BALB/c female mice (6 weeks to 7 weeks) were received a single administration of the compound represented by Formula I containing 10% to 20% DMSO, 10% Solutol (KollipHor HS15) and 80% to 70% physiological saline as excipient. Mice (n=3) were administered orally (gavage, clear solution) at a dose of 5 mg/kg. Blood was collected after oral administration at the following points of time: 15 min, 30 min, 1 h, 2 h, 4 b, 7 h, and 24 h. About 0.1 mL of whole blood was collected from the retro-orbital venous plexus and placed in a test tube containing EDTA anticoagulant. Samples were centrifuged at 4° C. and 4000 rpm for 10 min. Plasma was transferred to a centrifugal tube and stored at −20° C. before analysis. The concentration of test compound in plasma samples was analyzed by liquid chromatography-tandem mass spectrometry (LC-MS/MS). Plasma concentration-time data from individual animals were analyzed using software Sciex Analyst. A non-compartmental model was introduced in the concentration analysis, and pharmacokinetic parameters of the test compound were calculated using software WinNonlin (version 4.1; pHarsight).

[7] = tested on: NCI-H226 cells; assay: Cell proliferation inhibitory activity detection (CTG detection); format: cell-based; conditions: Homo sapiens; NCI-H226 cells (NF2 expression-deficient), 144 h, CellTiter-Glo; read-out: IC50 value (inhibition of cell proliferation)
Description: The inhibition of the compound on cell proliferation was detected using CellTiter-Glo® Luminescent Cell Viability Assay Kit (Promega Company). NCI-H226 cells (purchased from ATCC, NF2 expression-deficient) were cultured in RPMI 1640 complete medium (containing 10% FBS, 1% penicillin-streptomycin solution and 1 mM sodium pyruvate). • a) The day before compound treatment, cultured cells were washed with PBS, digested with trypsin, and then collected by centrifugation. The supernatant was removed and the cells were resuspended in fresh RPMI 1640 complete medium. […] Finally, the luminescence signal value (RLU) of each well was read on a multifunctional microplate reader PE En Vision®.
Inhibition rate (IR) of the detected compound: IR (%)=(1−(RLU compound−RLU blank control)/(RLU solvent control−RLU blank control))*100%. The inhibition rates of the compounds at different concentrations were calculated in Excel, then software GraphPad Prism was used to generate inhibition curves, and the relevant parameters were calculated, including the minimum inhibition rate Bottom. the maximum inhibition rate Top and IC50. […]

| Structure (SMILES) | TGI (%) ([1]; 10 mg/kg) | TGI (%) ([1]; 50 mg/kg) | Change in crystal form, characteristics and content compared with day 0 [2] | Crystal form after pressing [3] | Crystal form after the DVS test (XRPD) ([4]; after DVS test, XRPD detection) | Hygroscopicity (DVS) ([4]; dynamic vapor sorption analyzer) | pEC50 [5] | AUC(0-t) [6] [ng·h/mL] | Cmax [6] [ng/mL] | pIC50 [7] |
| --- | --- | --- | --- | --- | --- | --- | --- | --- | --- | --- |
| C=C(F)C(=O)N1CC(n2c(=O)n(-c3ccc(C(F)(F)F)cc3)c3nccnc32)C1 [1-[1-(2-fluoroacryloyl)azetidin-3-yl]-3-(4-trifluoromethylphenyl)-1,3-dihydro-2H-imidazo[4,5-b]pyrazin-2-one] | 109 | 111 | no significant change | the crystal form was not changed | no change in the crystal form | no hygroscopicity | – | – | – | – |
| C=C(F)C(=O)N1CC(n2c(=O)n(-c3ccc(C(F)(F)F)cc3)c3nccnc32)C1 [compound represented by Formula I, 1-[1-(2-fluoroacryloyl)azetidin-3-yl]-3-(4-trifluoromethylphenyl)-1,3-dihydro-2H-imidazo[4,5-b]pyrazin-2-one] | – | – | – | – | – | – | 8.70 | 17200 | 1970 | 8.15 |
